Data published in patent US10150737B2, “Compounds for controlling arthropods” (priority 2013, dated 2018).

Columns and labels:
Ctenocephalides felis [1] = assay: Ctenocephalides felis - in vitro contact tests with adult cat fleas; type: in vivo; conditions: application rate 5 μg/cm2 (=500 g/ha); after 48 h; fleas dead or moribund
How it was run: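 Tubes coated with compound in acetone (250 μl of 900 ppm solution gives 5 μg/cm^2 on 44.7 cm^2), solvent evaporated, then 5–10 adult fleas added and kept horizontal at room temperature and ambient humidity. After 48 h, dead or moribund (motionless/uncoordinated) fleas scored as % efficacy.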

Phaedon cochleariae = Phaedon cochleariae - spray test; type: in vivo; conditions: larvae on Chinese cabbage leaf discs, after 7 days
How it was run: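 Chinese cabbage leaf discs sprayed with compound formulated in acetone/DMF and water containing 1000 ppm emulsifier; once dry, infested with mustard beetle larvae. Efficacy (% larvae killed) scored after 7 days.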

Ctenocephalides felis [2] = assay: Ctenocephalides felis - oral test; type: in vivo; conditions: application rate 100 ppm in citrated cattle blood; after 2 days
How it was run: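 Compound in DMSO diluted into citrated cattle blood, fed through a parafilm membrane to about 20 unfed adult cat fleas. Kill in % scored after 2 days (100% = all dead).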

Rhipicephalus sanguineus = Rhipicephalus sanguineus - in vitro contact tests with adult brown dog ticks; type: in vivo; conditions: after 48 h, ticks dead or moribund
How it was run: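 Test tubes coated with active ingredient in acetone, 5 μg/cm^2 at 900 ppm. 5-10 adult ticks per tube, kept dark at room temperature for 48 h. Ticks then heated at 45-50° C ≤5 min; motionless or uncoordinated ticks scored dead/moribund, efficacy as % dead or moribund.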

Myzus persicae = Myzus persicae - spray test; type: in vivo; conditions: Chinese cabbage leaf discs, after 6 days
How it was run: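 Chinese cabbage leaf discs carrying all stages of Myzus persicae sprayed with compound in acetone/DMF diluted in water with 1000 ppm emulsifier. Efficacy (% aphids killed) assessed after 6 days.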

Spodoptera frugiperda = Spodoptera frugiperda - spray test; type: in vivo; conditions: caterpillars on maize leaf discs, after 7 days
How it was run: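 Maize leaf discs sprayed with compound formulated in acetone/DMF and diluted in water containing 1000 ppm alkylaryl polyglycol ether emulsifier, then infested with armyworm caterpillars after drying. Efficacy scored after 7 days as % caterpillars killed (100% all, 0% none).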

[3] = logP determination by HPLC on a reversed-phase column (C18); type: physicochemical; conditions: reversed-phase column (C18); for logP^a): HPLC-MS method a); for log P: HPLC-MS, Table I-T3
Lucilia cuprina = Lucilia cuprina test; type: in vivo; conditions: application rate 100 ppm; L1 larvae; after 2 days
How it was run: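 About 20 L1 larvae placed on minced horsemeat treated with compound, formulated in DMSO and diluted with water to test concentration. Kill in % scored after 2 days (100% = all larvae dead, 0% = none).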

[4] = system: Boophilus microplus Parkhurst strain, SP-resistant; assay: Boophilus microplus - dip test; type: in vivo; conditions: application rate 100 ppm; dip of engorged adult female ticks; after 7 days
How it was run: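 SP-resistant Parkhurst strain engorged adult female Boophilus microplus (8-10 per tube) dipped in DMSO-based compound dilutions in water, then kept in a climate-controlled room. Efficacy scored after 7 days from fertile egg laying, with larval hatch checked after about 42 days; 100% means no fertile eggs.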

Amblyomma hebraeum = assay: Amblyomma hebaraeum test (tick nymphs, immersion); type: in vivo; conditions: application rate 100 ppm; tick nymphs immersed one minute; after 42 days
How it was run: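 Tick nymphs immersed for one minute in compound diluted in water from a DMSO concentrate, then held on filter paper in a Petri dish in a climate-controlled cabinet. Kill (%) scored after 42 days; 100% means all ticks dead, 0% none.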

Tetranychus urticae = Tetranychus urticae - spray test, OP-resistant; type: in vivo; conditions: bean leaf discs, after 6 days
How it was run: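 Compound dissolved in acetone/DMF, diluted with water containing 1000 ppm alkylaryl polyglycol ether emulsifier to test concentrations. Bean leaf discs infested with all stages of spider mites were sprayed; % kill determined after 6 days (100% = all mites dead, 0% = none).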

Musca domestica = Musca domestica test; type: in vivo; conditions: application rate 100 ppm; adult houseflies; after 2 days
How it was run: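 Percent kill of adult houseflies is recorded 2 days after exposure, where 100% denotes all flies dead and 0% none. Flies (10 per vessel) feed from a sponge carrying sugar solution and the aqueous-diluted DMSO formulation.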

Boophilus microplus = Boophilus microplus - injection test; type: in vivo; conditions: application rate 20 μg/animal; injection into engorged adult female ticks; after 7 days
How it was run: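 Active ingredient in DMSO, 1 μl injected into the abdomen of 5 engorged adult female ticks, then held in a climate-controlled room. Efficacy scored after 7 days from laying of fertile eggs, with non-fertile-looking eggs kept about 42 days for larval hatch; 100% means no fertile eggs.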

SMILES | efficacy (Ctenocephalides felis [1]) | efficacy (Phaedon cochleariae; application rate 500 g/ha) | efficacy (kill) (Ctenocephalides felis [2]) | efficacy (Rhipicephalus sanguineus; application rate 5 μg/cm2) | efficacy (Myzus persicae; application rate 500 g/ha) | efficacy (Spodoptera frugiperda; application rate 500 g/ha) | logP^a) [3] | log P [3] | efficacy (kill) (Lucilia cuprina) | efficacy (laying of fertile eggs) [4] | efficacy (kill) (Amblyomma hebraeum) | efficacy (Tetranychus urticae; application rate 500 g/ha) | efficacy (kill) (Musca domestica) | efficacy (laying of fertile eggs) (Boophilus microplus) | efficacy (Myzus persicae; application rate 100 g/ha) | efficacy (Rhipicephalus sanguineus; application rate 1 μg/cm2) | efficacy (Phaedon cochleariae; application rate 100 g/ha) | efficacy (Spodoptera frugiperda; application rate 100 g/ha) | efficacy (Tetranychus urticae; application rate 100 g/ha)
CCc1cc(C(F)(C(F)(F)F)C(F)(F)F)cc(C)c1-n1cc(-c2cnc(Cl)c(C(=O)NC3(C#N)CC3)c2)cn1 [I-T3-110] | 100% | 100% | 100% | 100% | 100% | 100% | 4.1 | 4.1 | 100% | 100% | 100% | 100% | 100% | 100% |  |  |  |  | 
O=C(NC1CC1)c1cc(-c2cnn(-c3c(Cl)cc(C(F)(C(F)(F)F)C(F)(F)F)cc3C(F)(F)F)c2)cnc1Cl [I-T3-112] | 100% | 100% | 100% | 100% |  | 100% | 4.0 | 4.0 | 100% | 100% | 100% | 100% | 100% | 100% | 100% |  |  |  | 
N#CC1(NC(=O)c2cc(-c3cnn(-c4c(Cl)cc(C(F)(C(F)(F)F)C(F)(F)F)cc4C(F)(F)F)c3)cnc2Cl)CC1 [I-T3-114] | 100% | 100% | 100% |  | 90% | 100% | 4.0 | 4.0 | 100% | 100% | 100% | 100% | 100% | 100% |  | 100% |  |  | 
Cc1cc(C(F)(C(F)(F)F)C(F)(F)F)cc(C(F)(F)F)c1-n1cc(-c2cnc(C)c(C(=O)NC3CC3)c2)cn1 [I-T3-117] | 100% | 100% | 100% | 100% | 90% | 100% | 3.5 | 3.5 | 100% | 100% | 100% | 90% | 100% | 100% |  |  |  |  | 
Cc1cc(C(F)(C(F)(F)F)C(F)(F)F)cc(C(F)(F)F)c1-n1cc(-c2cnc(C)c(C(=O)NC3(C#N)CC3)c2)cn1 [I-T3-119] | 100% | 100% | 100% | 100% | 90% | 100% | 3.6 | 3.6 | 100% | 100% | 100% | 100% | 100% | 100% |  |  |  |  | 
Cc1cc(C(F)(C(F)(F)F)C(F)(F)F)cc(C(F)(F)F)c1-n1cc(-c2cnc(C)c(C(=O)N(C)C3(C#N)CC3)c2)cn1 [I-T3-123] | 100% |  | 100% |  |  |  | 3.9 | 3.9 | 100% | 100% | 80% |  | 100% | 100% | 100% | 80% | 100% | 100% | 90%
O=C(NC1CC1)c1cc(-c2cnn(-c3c(Cl)cc(C(F)(C(F)(F)F)C(F)(F)F)cc3OC(F)(F)F)c2)ccc1Cl [I-T3-162] | 100% |  | 100% | 100% |  |  | 4.6 | 4.6 | 100% | 100% | 100% |  | 100% | 100% | 100% |  | 100% | 100% | 100%
